Laboratory results reported in PMC11237035, “Glutathione determines chronic myeloid leukemia vulnerability to an inhibitor of CMPK and TMPK” (Communications Biology, 2024).
pIC50: −log10 of the molar value. Values joined by “and” are separate entries in the source; they are usually repeats but may differ in a detail not shown here. Equal values may be shown once. Read-outs that look alike come from different tables or passages of the source.

Experiments:
T315I-Bcr-Abl-32D cells [1] = experiment: CCK-8 cell viability assay, T315I-Bcr-Abl-32D cells; format: cell-based, mouse; conditions: for viability (0 = 100): T315I-Bcr-Abl, single replicates
K562 cells = experiment: CCK-8 cell viability assay, K562 cells; format: cell-based, human; conditions: for cell viability (Figure 7d): K562, relative to 0 = 100, per replicate
Procedure: After 3 days, cells were analyzed by viability assays.

untransformed 32D cells = experiment: Western blot of tyrosine phosphorylation, untransformed 32D cells; format: cell-based, mouse; conditions: untransformed 32D cells, JMF4073 at indicated concentrations, Western blot
WT-Bcr-Abl-32D cells = experiment: Western blot of tyrosine phosphorylation and Bcr-Abl downstream signaling, WT-Bcr-Abl-32D cells; format: cell-based, mouse; conditions: WT-Bcr-Abl-32D cells, JMF4073 at indicated concentrations, Western blot
Excerpt: (§1) Supplementary Figure 1. Bcr-Abl-activated downstream signaling in WT- and
(§2) The comparison of Bcr-Abl downstream signaling (Akt, mTorC1, and Stat5) in WT- […]

T315I-Bcr-Abl-32D cells [2] = experiment: Western blot of tyrosine phosphorylation and Bcr-Abl downstream signaling, T315I-Bcr-Abl-32D cells; format: cell-based, mouse; conditions: T315I-Bcr-Abl-32D cells, JMF4073 at indicated concentrations, Western blot
Excerpt: as §1, §2

hTMPK = molecular target: T1, hTMPK (Homo sapiens, UniProt P23919); experiment: biochemical
T1 sequence (P23919 1-212): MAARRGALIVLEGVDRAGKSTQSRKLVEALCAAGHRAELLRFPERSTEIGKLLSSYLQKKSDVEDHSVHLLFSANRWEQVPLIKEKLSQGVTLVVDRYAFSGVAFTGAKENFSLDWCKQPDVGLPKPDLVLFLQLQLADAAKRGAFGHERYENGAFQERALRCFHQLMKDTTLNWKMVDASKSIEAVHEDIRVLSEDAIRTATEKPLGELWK
Procedure: Activity assay was measured using the spectrophotometric method by coupling ADP formation to NADH oxidation catalyzed by pyruvate kinase and lactate dehydrogenase as described previously[20]. Each reaction contained 0.4 μg TMPK or 0.3 μg CMPK was incubated at 25 °C followed by using Tecan Spark 10 microplate reader to detect the change in NADH measurement at 340 nm absorption according to the manufacturer’s instructions.

TCCS cells = experiment: CCK-8 cell viability assay, TCCS cells; conditions: for cell viability (Figure 7d) / cell viability (Figure 7g): TCCS, per replicate; for cell viability (Figure 7d): relative to 0 = 100; for cell viability (Figure 7g): NT, NT 0 μM = 100
Procedure: (§3) Cells were seeded at the density of 1 × 10^3 cells/well in 96-well microplate. After 3 days, cell viability was determined using the CCK-8 cell viability. The viability was measured by using Tecan Spark 10 microplate reader at 450 nm according to the manufacturer’s instructions.

KOPM28 cells = experiment: CCK-8 cell viability assay, KOPM28 cells; conditions: for cell viability (Figure 7g): NT, NT 0 μM = 100, per replicate
Procedure: as §3

[3] = tested on: WT-Bcr-Abl-32D cells in C3H/HeNCrNarl mice; experiment: In vivo therapy of WT-Bcr-Abl-32D CML mice; conditions: WT-Bcr-Abl-32D mice
Excerpt: Data are represented as means ± S.D., n = 3 biological replicates. e C3H/HeNCrNarl mice were intravenously injected with 5 × 10^5 cells of WT-Bcr-Abl-32D cell. […] Asterisks denote *p < 0.05, **p < 0.01, ***p < 0.001, or ****p < 0.0001 from unpaired two-tailed Student’s t-test or Log-rank (Mantel–Cox) test.
Female C3H/HeNCrNarl mice were used at 6–8 weeks of age (National Laboratory Animal Center, Taiwan).
Mouse CML induction and in vivo therapy
Female C3H/HeNCrNarl mice were used at 6-8 weeks of age (National
Laboratory Animal Center, Taiwan). WT-Bcr-Abl-32D-EGFP+ cells (5 × 105)
suspended in 200 μL of HBSS were injected into each mouse through the tail vein. After
were monitored for peripheral blood (PB) and counted by Taiwan Mouse Clinic-
National Phenotyping Center, National Research Program for Genomic Medicine
(NSC). For T315I-Bcr-Abl CML mice, T315I-Bcr-Abl-32D-EGFP+ cells (1×106)
suspended in 200 μL of HBSS were tail-vein-injected. After 7 days of transplantation,
(§4) For monitoring CML progress, mice blood was
(§5) collected in anticoagulation tubes by submandibular blood collection, followed by
(§6) lysing red blood cells with RBC lysis buffer (Invitrogen). After washing, the remaining
(§7) cells were suspended in 500 μL of HBSS and subjected to flow cytometry analysis
(FACScalibur, BD Bioscience) with CellQuest software. The number of EGFP+ cells

[4] = tested on: T315I-Bcr-Abl-32D cells in C3H/HeNCrNarl mice; conditions: for survival of leukemia mice: T315I-Bcr-Abl-32D mice, vs vehicle
Procedure: Asterisks denote *p < 0.05, **p < 0.01, ***p < 0.001, or ****p < 0.0001 from unpaired two-tailed Student’s t-test or Log-rank (Mantel–Cox) test.
T315I-Bcr-Abl-transformed and untransformed 32D cells were treated with UK-5099 (25 μM) for 16 h. […] Data are represented as means ± S.D., n > 3 biological replicates.
The animal studies were approved by the biosafety committee at National Taiwan University and conformed to the national guidelines and regulations (IACUC # 20201063). Female C3H/HeNCrNarl mice were used at 6–8 weeks of age (National Laboratory Animal Center, Taiwan).
Mouse CML induction and in vivo therapy
The animal studies were approved by the biosafety committee at National Taiwan
University and conformed to the national guidelines and regulations (IACUC #
20201063). Female C3H/HeNCrNarl mice were used at 6-8 weeks of age (National
Laboratory Animal Center, Taiwan).
suspended in 200 μL of HBSS were injected into each mouse through the tail vein.
suspended in 200 μL of HBSS were tail-vein-injected.
as §4, §5, §6, §7
(FACScalibur, BD Bioscience) with CellQuest software.

CC(C)(C)OC(=O)N1CCN(C(=O)Cn2sc3ccc(F)cc3c2=O)CC1 [JMF4073, Tert-butyl 4-(2-(5-fluoro-3-oxobenzo[d]isothiazol-2(3H)-yl)acetyl) piperazine-1-carboxylate]
viability (0 = 100) (T315I-Bcr-Abl-32D cells [1]; JMF4073 2 mM (so in the source)): 12 and 38 and 34.0126
viability (0 = 100) (T315I-Bcr-Abl-32D cells [1]; JMF4073 5 mM (so in the source)): 19 and 10 and 9.067
JMF4073 sensitivity with BSO co-treatment (T315I-Bcr-Abl-32D cells [1]; T315I-Bcr-Abl-32D cells, BSO 12.5 μM): markedly increased
JMF4073 sensitivity with UK-5099 treatment (T315I-Bcr-Abl-32D cells [1]; T315I-Bcr-Abl-32D cells, UK-5099 25 μM): sensitized
cell viability (Figure 7d) (K562 cells; JMF4073 0.625 (mM as printed)): 114.189 and 84.0418 and 97.6144
cell viability (Figure 7d) (K562 cells; JMF4073 1.25 (mM as printed)): 86.4343 and 75.2342 and 85.0231
cell viability (Figure 7d) (K562 cells; JMF4073 2.5 (mM as printed)): 42.6408 and 39.7616 and 38.8404
cell viability (Figure 7d) (K562 cells; JMF4073 5 (mM as printed)): 4.788 and 0.7438 and 0.1275
JMF4073 sensitivity (K562 cells; K562 cells, 3 days, compared among K562, TCCS, KOPM28): higher
levels of overall tyrosine phosphorylation (untransformed 32D cells): unaffected
levels of overall tyrosine phosphorylation (WT-Bcr-Abl-32D cells): unaffected
levels of overall tyrosine phosphorylation (T315I-Bcr-Abl-32D cells [2]): unaffected
pIC50 (hTMPK): 6.80 and ~6.77
sensitivity to combinatory treatment of JMF4073 and UK-5099 (TCCS cells; TCCS cells): insensitive
JMF4073 sensitivity (TCCS cells; TCCS cells, 3 days, compared among K562, TCCS, KOPM28): less
JMF4073 sensitivity after erastin pretreatment (TCCS cells; TCCS cells, erastin 0.5 μM, 16 h): markedly increased
cell viability (Figure 7d) (TCCS cells; JMF4073 0.625): 120.422 and 103.29 and 164.136
cell viability (Figure 7d) (TCCS cells; JMF4073 1.25): 102.037 and 133.359
cell viability (Figure 7d) (TCCS cells; JMF4073 2.5): 39.3238 and 117.065
cell viability (Figure 7d) (TCCS cells; JMF4073 5): 61.7646 and -1.852 and 14.6452
cell viability (Figure 7g) (TCCS cells; JMF 4073 0.625 μM): 120.422 and 103.29 and 164.136
cell viability (Figure 7g) (TCCS cells; JMF 4073 1.25 μM): 102.037 and 133.359
cell viability (Figure 7g) (TCCS cells; JMF 4073 2.5 μM): 39.3238 and 117.065
cell viability (Figure 7g) (TCCS cells; JMF 4073 5 μM): 61.7646 and -1.852 and 14.6452
cell viability (Figure 7g) (KOPM28 cells; KOPM28, JMF 4073 1.25 μM): 106.704 and 151.464
cell viability (Figure 7g) (KOPM28 cells; KOPM28, JMF 4073 2.5 μM): 112.966 and 158.237
cell viability (Figure 7g) (KOPM28 cells; KOPM28, JMF 4073 5 μM): 142.547 and 122.577 and 85.9406
cell viability (Figure 7g) (KOPM28 cells; KOPM28, JMF 4073 10 μM): 0 and -1.445 and 2.083
sensitivity to combinatory treatment of JMF4073 and UK-5099 (KOPM28 cells; KOPM28 cells): insensitive
JMF4073 sensitivity (KOPM28 cells; KOPM28 cells, 3 days, compared among K562, TCCS, KOPM28): insensitive
JMF4073 sensitivity after erastin pretreatment (KOPM28 cells; KOPM28 cells, erastin 0.5 μM, 16 h): markedly increased
WBC (White blood cell/Leukocyte count) ([3]; IP JMF4073, Day 26, submandibular blood, single mice): brought down
survival of leukemia mice ([3]; JMF4073 5 mg/kg i.p. daily for 14 days, vs vehicle): prolonged the survival
Spleen weight ([4]; Figure 6h, individual mice N1-N3): 0.26 g and 0.29 g and 0.58 g
spleen size ([4]; JMF4073 5 mg/kg + UK-5099 10 mg/kg i.p.): marked decreases
population of T315I-Bcr-Abl-32D/EGFP+ cells in blood ([4]; JMF4073 5 mg/kg + UK-5099 10 mg/kg i.p., flow cytometry, day 30 after transplantation): marked decreases
survival of leukemia mice ([4]; JMF4073 5 mg/kg + UK-5099 10 mg/kg i.p. daily for 14 days): prolonged the survival
survival of leukemia mice ([4]; JMF4073 5 mg/kg i.p. daily for 14 days): not significantly prolonged
